This note sets out measurements from patent publication US6982348B2, “Aminoethanol derivatives” (Takeda Pharmaceutical Company Limited, priority 2001, dated 2006).

The structures appear in SMILES notation.

Usually melting point stands for the temperature of the solid-liquid transition.

As to `O=C(N[C@H](Cc1cccc(OC(F)(F)C(F)F)c1)[C@@H](O)c1csc(-c2ccccc2)n1)c1ccc(F)c2ccccc12` (racemic) [Example 362, 4-fluoro-N-{(1RS,2RS)-2-hydroxy-2-(2-phenyl-1,3-thiazol-4-yl)-1-[3-(1,1,2,2-tetrafluoroethoxy)benzyl]ethyl}-1-naphthamide], the melting point was in the range of 148 to 150 °C.
With `O=C(Nc1cccc2ccccc12)N[C@H](Cc1ccc(C(F)(F)F)cc1)[C@@H](O)c1ccc(F)cc1` (racemic) [Example 118, N-((1RS,2SR)-2-(4-fluorophenyl)-2-hydroxy-1-((4-(trifluoromethyl)phenyl)methyl)ethyl)-N′-(1-naphthalenyl)urea], the melting point lay in the range of 222 to 223 °C.
Under `O=C(N[C@H](Cc1ccc(C(F)(F)F)cc1)[C@@H](O)c1cccc2ccccc12)c1ccc(F)cc1` (racemic) [Example 188, 4-fluoro-N-((1RS,2SR)-2-hydroxy-2-(1-naphthalenyl)-1-((4-(trifluoromethyl)phenyl)methyl)ethyl)benzamide] stands 194 to 195 °C.
`Cn1cc(C(=O)N[C@H](Cc2ccc(C(F)(F)F)cc2)[C@@H](O)c2ccc(F)cc2)c2ccccc21` (racemic) [Example 98, N-[(1RS,2SR)-2-(4-fluorophenyl)-2-hydroxy-1-[4-(trifluoromethyl)benzyl]ethyl]-1-methyl-1H-indole-3-carboxamide] returned a melting point of 129 to 131 °C.
Molecule `COc1ccc2c(C(=O)N[C@H](Cc3ccc(C(F)(F)F)cc3)[C@@H](O)c3ccc(F)cc3)cccc2c1` (racemic) [Example 56, N-((1RS,2SR)-2-(4-fluorophenyl)-2-hydroxy-1-((4-(trifluoromethyl)phenyl)methyl)ethyl)-6-(methyloxy)-1-naphthalenecarboxamide] came in with a melting point of 193 to 194 °C.
Molecule `O=C(N[C@H](Cc1ccc(C(F)(F)F)cc1)[C@@H](O)c1ccc(F)cc1)C1CCCCC1` (racemic) [Example 52, N-((1RS,2SR)-2-(4-fluorophenyl)-2-hydroxy-1-((4-(trifluoromethyl)phenyl)methyl)ethyl)cyclohexanecarboxamide] showed a melting point of 203 to 204 °C.
The result for `O=C(NC(Cc1ccc(C(F)(F)F)cc1)C(O)c1ccc(F)cc1)C12CC3CC(CC(C3)C1)C2` (racemic) [Example 15, N-[2-(4-fluorophenyl)-2-hydroxy-1-[[4-(trifluoromethyl)phenyl]methyl]ethyl]adamantane-1-carboxamide] reads 169 to 170 °C.
The result for `O=C(CCCc1cccs1)N[C@H](Cc1ccc(C(F)(F)F)cc1)[C@@H](O)c1cccc2ccccc12` (racemic) [Example 191, N-((1RS,2SR)-2-hydroxy-2-(1-naphthalenyl)-1-((4-(trifluoromethyl)phenyl)methyl)ethyl)-4-(2-thienyl)butyramide] reads 139 to 140 °C.
With `O=C(N[C@H](Cc1ccc(CC(F)(F)C(F)(F)F)cc1)[C@@H](O)c1cccc(Cl)c1)c1cccc2c(Cl)cccc12` (racemic) [Example 375, 5-chloro-N-{(1RS,2SR)-2-(3-chlorophenyl)-2-hydroxy-1-[4-(2,2,3,3,3-pentafluoropropyl)benzyl]ethyl}-1-naphthamide], the melting point was in the range of 216 to 217 °C.
Turning to `O=C(N[C@H](Cc1ccc(C(F)(F)F)cc1)[C@@H](O)c1ccc(F)cc1F)c1ccc(F)c2ccccc12` (racemic) [Example 181, N-((1RS,2SR)-2-(2,4-difluorophenyl)-2-hydroxy-1-((4-(trifluoromethyl)phenyl)methyl)ethyl)-4-fluoro-1-naphthalenecarboxamide], the melting point is 194 to 195 °C.
On to `COc1ccc(C(=O)N[C@H](Cc2ccc(C(F)(F)F)cc2)[C@@H](O)c2ccc(F)cc2)c2ccccc12` (racemic) [Example 101, N-[(1RS,2SR)-2-(4-fluorophenyl)-2-hydroxy-1-[4-(trifluoromethyl)benzyl]ethyl]-4-methoxynaphthalene-1-carboxamide], for which the melting point lay in the range of 227 to 228 °C.
For `O=C(N[C@H](Cc1ccc(C(F)(F)F)cc1)[C@@H](O)c1ccc(F)cc1)c1cccc2c1OCC2` (racemic) [Example 77, N-((1RS,2SR)-2-(4-fluorophenyl)-2-hydroxy-1-((4-(trifluoromethyl)phenyl)methyl)ethyl)-2,3-dihydro-1-benzofuran-7-carboxamide], the melting point was 121 to 122 °C.
Molecule `O=C(N[C@H](Cc1cccc(OC(F)(F)C(F)F)c1)[C@@H](O)c1ccc(F)cc1)c1cccc2c(Cl)cccc12` (racemic) [Example 333, 5-chloro-N-[(1RS,2SR)-2-(4-fluorophenyl)-2-hydroxy-1-[3-(1,1,2,2-tetrafluoroethoxy)benzyl]ethyl]naphthalene-1-carboxamide] returned a melting point of 174 to 175 °C.
Consider `O=C(N[C@H](Cc1cccc(OC(F)(F)C(F)F)c1)[C@@H](O)c1ccc(Oc2ccccc2)cc1)c1ccc(F)c2ccccc12` (racemic) [Example 267, 4-fluoro-N-{(1RS,2SR)-2-hydroxy-2-(4-phenoxyphenyl)-1-[3-(1,1,2,2-tetrafluoroethoxy)benzyl]ethyl}-1-naphthamide], for which the melting point lay within 155 to 156 °C.
Consider `CC(C)(C)Cc1ccc(C[C@@H](NC(=O)c2cccc3c(Cl)cccc23)[C@@H](O)c2cccc(Cl)c2)cc1` (racemic) [Example 346, 5-chloro-N-[(1RS,2SR)-2-(3-chlorophenyl)-2-hydroxy-1-(4-neopentylbenzyl)ethyl]naphthalene-1-carboxamide], for which the melting point lay in the range of 168 to 169 °C.
`O=C(N[C@H](Cc1cccc(OC(F)(F)C(F)F)c1)[C@@H](O)c1cccc(Cl)c1)c1ccc(F)c2ccccc12` (racemic) [Example 264, 4-fluoro-N-{(1RS,2SR)-2-(3-chlorophenyl)-2-hydroxy-1-[3-(1,1,2,2-tetrafluoroethoxy)benzyl]ethyl}-1-naphthamide] came in with a melting point of 177 to 178 °C.
Consider `COc1ccc(C[C@@H](NC(=O)c2ccc(F)c3ccccc23)[C@@H](O)c2ccc(F)cc2)cc1` (racemic) [Example 149, 4-fluoro-N-((1RS,2SR)-2-(4-fluorophenyl)-2-hydroxy-1-((4-(methyloxy)phenyl)methyl)ethyl)-1-naphthalenecarboxamide], for which the melting point is 210 to 211 °C.
Molecule `O=C(N[C@H](Cc1ccc(C(F)(F)F)cc1)[C@@H](O)c1ccc(F)cc1)c1cccc(-c2ccccc2)c1` (racemic) [Example 74, N-((1RS,2SR)-2-(4-fluorophenyl)-2-hydroxy-1-((4-(trifluoromethyl)phenyl)methyl)ethyl)[1,1′-biphenyl]-3-carboxamide] yielded a melting point of 165 to 166 °C.
Regarding `CC(F)(F)c1ccc(C[C@@H](NC(=O)c2ccc(F)c3ccccc23)[C@@H](O)c2ccc(F)cc2)cc1` (racemic) [Example 166, N-[(1RS,2SR)-1-[4-(1,1-difluoroethyl)benzyl]-2-(4-fluorophenyl)-2-hydroxyethyl]-4-fluoronaphthalene-1-carboxamide], the melting point was in the range of 220 to 221 °C.
`O=C(CCc1ccccc1)N[C@H](Cc1ccc(C(F)(F)F)cc1)[C@@H](O)c1ccc(F)cc1F` (racemic) [Example 182, N-((1RS,2SR)-2-(2,4-difluorophenyl)-2-hydroxy-1-((4-(trifluoromethyl)phenyl)methyl)ethyl)-3-phenylpropanamide] displayed a melting point of 126 to 127 °C.
